Results from patent publication US12349710B2, “Sensory modifiers” (CARGILL, INCORPORATED, priority 2019, dated 2025).

Tests used:
[1] = Roundtable sensory panel of at least four experienced individuals, aqueous test samples (Example 1); type: in vivo; parameters: key to Spiky-Rounded: 0—like Reb M/N (spiky); 1—mostly spiky, some rounded; 2—mostly rounded, some spiky; 3—rounded; key to Sweet Linger / Tea/floral/green / Bitter / Typical Reb M/N Attributes (astringency, metallic, powdery, numbing, vapory): 0—none,; 1—trace/faint; 2—slight; 3—moderate; 4—definite; 5—strong; 6—extreme, typical Reb M/N; key to Mouthfeel: 0—water; 1—sucrosey; 2—syrupy; conditions: solution in reverse osmosis water
Protocol: Solutions were prepared which contained either a steviol glycoside component alone, for use as a control sample, or a steviol glycoside component and sensory modifier in a 2:1 molar ratio, which also corresponds to a 2:1 weight ratio. Solutions were prepared by dissolving the steviol glycoside components and sensory modifiers into reverse osmosis water at the indicated concentrations and/or ratios.
Assays were carried out to characterize the sensory attributes of steviol glycoside compositions having various salt fractions of sensory modifier. Sensory attributes of the solutions were tested by a panel of at least four individuals that are experienced in tasting steviol glycoside compositions. The experienced panelists used a roundtable methodology to assess each sweetness attribute. To test each solution, the experienced panelists dispensed approximately 2 mL of each solution into their own mouths by transfer pipet, dispersed the solution by moving their tongues, and recorded a value for the particular sweetness attribute being tested. Between tasting solutions, the panelists were able to cleanse their palates with water. For each sweetness attribute, the panelists agreed on a descriptive scale with relative intensities assigned for each sweetness attribute and then recorded the values for each sweetness attribute against this.
A mixture of monocaffeoylquinic acid and dicaffeoylquinic acid was obtained from yerba mate to provide the sensory modifier in acid form. Separately from the steviol glycoside component, the mixture of monocaffeoylquinic acid and dicaffeoylquinic acid was adjusted with sodium hydroxide or potassium hydroxide to obtain sodium salts or potassium salts (each corresponding to 100% salt form). The resulting samples were freeze-dried to provide sensory modifier (SM) in ready-to-use, powder-form. A series of samples were prepared from the sensory modifier. For each sample, the final concentration of sensory modifiers was 470-500 ppm (wt/wt), including the contribution of salt mass. Steviol Glycoside Component Examples A and B were used alone as a control sample and also used as the starting point for the sensory modified samples.
For each sample, the flavor profile was compared to the steviol glycoside solution alone as well as to the sample with differing salt composition.

[2] = Perceived sweetness intensity (SEV, sucrose equivalent value) of aqueous test samples; type: in vivo; conditions: sucrose equivalent value (SEV 1 = 1% sucrose solution); solution in reverse osmosis water
Source text: In some aspects, minor steviol glycosides can also have specific sensory attributes related to sweetness intensity. Perceived sweetness intensity can be reported as SEV (sucrose equivalent value) with increasing sweetness intensity corresponding to higher SEV. A SEV of 1 corresponds to a 1% sucrose solution, a SEV of 2 corresponds to a 2% sucrose solution, and so on. While perception of sweetness intensity generally increases as the concentration of the minor steviol glycoside increases, the perceived sweetness intensity can reach a plateau despite increasing amounts of the minor steviol glycoside. […]
As a further example, sweetness intensity of the solutions can be tested by a panel of at least four individuals that are experienced in tasting steviol glycoside compositions. […] The panelists also can taste the standard range of 1%, 2%, 3%, 4%, 5%, 6%, 7%, 8%, 9%, 10%, 11%, 12%, 13%, and 14% sucrose solutions ad libitum between tasting test solutions to ensure an accurate match to their recorded SEV values with the standard sucrose solutions. […]
A mixture of monocaffeoylquinic acid and dicaffeoylquinic acid was obtained from yerba mate to provide the sensory modifier in acid form. […] The resulting samples were freeze-dried to provide sensory modifier (SM) in ready-to-use, powder-form. […]

[3] = cited from earlier work

| Structure (SMILES) | Mouthfeel ([1]; panel score 0-2) | Spiky-Rounded ([1]; panel score 0-3) | Tea/floral/green ([1]; panel score 0-5) | Bitter ([1]; panel score 0-6) | Sweet Linger ([1]; panel score 0-6) | Typical Reb M/N Attributes (astringency, metallic, powdery, numbing, vapory) ([1]; panel score 0-6) | SEV [2] | pKa [3] |
| --- | --- | --- | --- | --- | --- | --- | --- | --- |
| C=C1C[C@@]23CC[C@H]4[C@@](C)(CCC[C@@]4(C)C(=O)O[C@@H]4O[C@H](CO)[C@@H](O)[C@H](O[C@@H]5O[C@H](CO)[C@@H](O)[C@H](O)[C@H]5O)[C@H]4O[C@@H]4O[C@H](CO)[C@@H](O)[C@H](O)[C@H]4O)[C@@H]2CC[C@]1(O[C@@H]1O[C@H](CO)[C@@H](O)[C@H](O[C@@H]2O[C@H](CO)[C@@H](O)[C@H](O)[C@H]2O)[C@H]1O[C@@H]1O[C@H](CO)[C@@H](O)[C@H](O)[C@H]1O)C3 [Component Example A, rebaudioside M] | 0 | 0 | 0 | 5 | 4 | 4 | 9.5 |  |
| O=C(O)[C@]1(O)C[C@@H](O)[C@@H](O)[C@H](O)C1 [quinic acid, D-(−)-quinic acid] |  |  |  |  |  |  |  | around 3.46 |
